From publication PMC11501026, “L-Arginine and asymmetric dimethylarginine (ADMA) transport across the mouse blood-brain and blood-CSF barriers: Evidence of saturable transport at both interfaces and CNS to blood efflux” (PLOS ONE, 2024)
Where “and” joins values, the source holds several entries; their conditions need not be identical. Equal values may be shown once. Read-outs that look alike come from different tables or passages of the source.

Columns and labels:
Type in all cases: in vivo, mouse
[1] = tested on: [3H]-ADMA transport across the blood-brain and blood-CSF barriers; assay: cross-inhibition, in situ perfusion: [^3H]-ADMA with 100 μM unlabelled L-arginine; details: male, Balb/c, mouse, other: in situ brain perfusion, with 100 µM unlabelled L-arginine, [3H] ADMA + [14C] Sucrose + 100uM Arg, 10 mins, Balb/c ♂, 5ml/min
Method: (§1) Self-inhibition experiments were also performed. […] Cross-competition experiments were also performed.
(§2) The percentage change in the RTissue uptake values achieved in the absence or presence of an unlabelled inhibitor can be calculated by means of Eq 4.
(§3) %change=RTissue−RInhibition/RTissue×100 Eq 4
(§4) We define RInhibition as the RTissue uptake in the presence of an inhibitor in the artificial plasma.
(§5) A decrease in the uptake of radiolabelled solute in the presence of unlabelled inhibitor is indicative of a saturable influx transport system. Conversely, an increase in the uptake of radiolabelled solute in the presence of unlabelled inhibitor is indicative of a saturable efflux transport system.

[2] = tested on: [^3H]-ADMA transport across the blood-brain and blood-CSF barriers; assay: as above; details: [3H] ADMA + [14C] Sucrose + 100uM Arg, 10 mins, Balb/c ♂, 5ml/min; individual mice
Method: as §1, §2, §3, §4, §5

[3] = as above; details: male, Balb/c, mouse, brain homogenate, other: in situ brain perfusion, with 100 µM unlabelled L-arginine, [3H] ADMA + [14C] Sucrose + 100uM Arg, 10 mins, Balb/c ♂, 5ml/min; mean; read-out: uptake, homogenate
Method: as §1, §2, §3, §4, §5

[4] = tested on: [3H]-ADMA transport across the blood-brain and blood-CSF barriers; assay: self-inhibition, in situ perfusion: [^3H]-ADMA with 100 μM unlabelled ADMA; details: male, Balb/c, mouse, other: in situ brain perfusion, with unlabelled ADMA 100 µM, [3H] ADMA + [14C] Sucrose + 100uM un-labelled ADMA, 10 mins, Balb/c ♂, 5ml/min, mean
Method: as §1, §2, §3, §4, §5

[5] = capillary depletion analysis after in situ brain perfusion; set-up: [3H] ADMA and [14C] Sucrose uptake, homogenate / Difference (ADMA minus Sucrose), homogenate / [3H] ADMA and [14C] Sucrose uptake, supernatant / Difference (ADMA minus Sucrose), supernatant / uptake, homogenate / uptake, supernatant: unit not given here; details: for Kp at 30 min: other: in situ brain perfusion with artificial plasma
Method: The microvasculature within a sample of brain tissue can be separated from the brain parenchyma using capillary depletion analysis. Following perfusion, the remaining brain tissue after microdissection of the regions described above (typically 200–300 mg) underwent capillary depletion following a method modified for mouse. […]

Work on OC[C@H]1O[C@@](CO)(O[C@H]2O[C@H](CO)[C@@H](O)[C@H](O)[C@H]2O)[C@@H](O)[C@@H]1O [[^14C]-sucrose, reference compound] yielded a Kp at 10 min, 62.5 nM ([1]; choroid plexus, individual mice, read-out: uptake into choroid plexus) of 0.14, a Kp at 10 min, 62.5 nM ([1]; choroid plexus, mean, read-out: uptake into choroid plexus) of 0.145 and a Kp at 10 min, 62.5 nM ([1]; hypothalamus, mean, read-out: uptake into hypothalamus) of 0.0327. The Kp at 10 min, 62.5 nM ([1]; pituitary gland, mean, read-out: uptake into pituitary gland) was 0.113, the Kp at 10 min, 62.5 nM ([1]; pons, mean, read-out: uptake into pons) was 0.0462 and the “uptake, pellet” value [2] was 0.001402. For the same compound, the Kp at 10 min, 62.5 nM [3] was 0.0365, the Kp at 10 min, 62.5 nM ([4]; CSF, read-out: uptake into CSF) was 0.138 and the Kp at 10 min, 62.5 nM ([4]; pituitary gland, read-out: uptake into pituitary gland) was 0.0955. The “[3H] ADMA and [14C] Sucrose uptake, supernatant” value ([5]; 2.5 mins, Balb/c ♂, 5ml/min, individual mouse) was 0.005063, the “uptake, pellet” value ([5]; [3H] ADMA + [14C] Sucrose, 30 mins, Balb/c ♂, 5ml/min, individual mice) was 0.004118 and 0.004644 and 0.005073 and the Kp at 20 min, 62.5 nM ([5]; male, BALB/c, mouse, capillary depletion pellet (endothelial cell-enriched), [3H] ADMA and [14C] Sucrose uptake, pellet, 20 mins, 5ml/min, mean) was 0.00274. For the same compound, the Kp at 30 min ([5]; male, BALB/c, mouse, capillary depletion pellet (endothelial cell-enriched), pellet: [14C] Sucrose, 30 mins, Balb/c ♂, 5ml/min, single mouse) was 0.00943, the Kp at […] ([5]; male, BALB/c, mouse, capillary depletion supernatant (brain parenchyma), [3H] ADMA and [14C] Sucrose uptake, supernatant, 2.5 mins, 5ml/min, mean) was 0.0098 and the Kp at […] ([5]; male, BALB/c, mouse, endothelial cell-enriched pellet (capillary depletion), [3H] ADMA and [14C] Sucrose uptake, pellet, 2.5 mins, 5ml/min, mean) was 0.00237. For the same compound, the Kp at 30 min, 62.5 nM ([5]; male, BALB/c, mouse, endothelial cell-enriched pellet (capillary depletion), other: in situ brain perfusion, [3H] ADMA + [14C] Sucrose, 30 mins, Balb/c ♂, 5ml/min, individual mice, read-out: uptake, pellet) was 0.00308, the Kp at 30 min, 62.5 nM ([5]; male, BALB/c, mouse, endothelial cell-enriched pellet (capillary depletion), other: in situ brain perfusion, [3H] ADMA + [14C] Sucrose, 30 mins, Balb/c ♂, 5ml/min, mean, read-out: uptake, pellet) was 0.00455 and the Kp at […] ([5]; male, BALB/c, mouse, endothelial cell-enriched pellet (capillary depletion), pellet, 2.5 mins, uncorrected, given as fraction, read-out: tissue or CSF to plasma ratio (mean)) was 0.00218. The Kp at 10 min ([5]; male, BALB/c, mouse, endothelial cell-enriched pellet (capillary depletion), pellet, 10 mins, uncorrected, given as fraction, read-out: tissue or CSF to plasma ratio (mean)) was 0.00461, the Kp at 30 min ([5]; male, BALB/c, mouse, whole-brain homogenate (capillary depletion), homogenate: [14C] Sucrose, 30 mins, Balb/c ♂, 5ml/min, mean) was 0.0653 and the Kp at 30 min, 62.5 nM ([5]; male, BALB/c, mouse, whole-brain homogenate (capillary depletion), other: in situ brain perfusion, [3H] ADMA + [14C] Sucrose, 30 mins, Balb/c ♂, 5ml/min, mean, read-out: uptake, homogenate) was 0.0336. The Kp at 10 min, 62.5 nM ([5]; male, BALB/c, mouse, whole-brain homogenate (capillary depletion), other: in situ brain perfusion, [3H] ADMA and [14C] Sucrose uptake, homogenate, CONTROL, 10 mins, Balb/c ♂, 5ml/min, mean) was 0.0971, the Kp at 10 min ([5]; male, Balb/c, mouse, endothelial cell-enriched pellet after capillary depletion, other: in situ brain perfusion, with unlabelled ADMA 3 µM, Arginine / Sucrose uptake, pellet, mean, [3H] Arginine + [14C] Sucrose + 3 uM ADMA, 10 mins, Balb/c ♂, 5ml/min, mean) was 0.00326 and the Kp at 10 min ([5]; male, Balb/c, mouse, endothelial cell-enriched pellet after capillary depletion, other: in situ brain perfusion, with unlabelled ADMA 10 µM, Arginine / Sucrose uptake, pellet, mean, [3H] Arginine + [14C] Sucrose + 10 uM ADMA, 10 mins, Balb/c ♂, 5ml/min, mean) was 0.00425. It also gave a Kp at 10 min ([5]; male, Balb/c, mouse, endothelial cell-enriched pellet, other: in situ brain perfusion, with unlabelled ADMA 100 µM, Arginine / Sucrose uptake, pellet, mean, [3H] Arginine + [14C] Sucrose + 100µM un-labelled ADMA, 10 mins, Balb/c ♂, 5ml/min, mean) of 0.00383, a Kp at 10 min ([5]; male, Balb/c, mouse, supernatant (brain parenchyma) after capillary depletion, other: in situ brain perfusion, with unlabelled ADMA 3 µM, Arginine / Sucrose uptake, supernatant, mean, [3H] Arginine + [14C] Sucrose + 3 uM ADMA, 10 mins, Balb/c ♂, 5ml/min, mean) of 0.0159 and a Kp at 10 min ([5]; male, Balb/c, mouse, supernatant (brain parenchyma), other: in situ brain perfusion, with unlabelled ADMA 100 µM, Arginine / Sucrose uptake, supernatant, [3H] Arginine + [14C] Sucrose + 100µM un-labelled ADMA, 10 mins, Balb/c ♂, 5ml/min, single mice) of 0.0158.
